Measurements as given in ChEMBL document CHEMBL1201862, “PubChem BioAssay data set” (2004).
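1) Cells in 96-well plates. 2) Compound, 48 h, 5 concentrations. 3) Linear interpolation between surrounding doses. 4) Unreached endpoint = highest concentration. Here, GI50 denotes the concentration required for 50% inhibition of growth.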 Active and inactive are the calls of the source. No stated cut-off is given here; in the data, active = GI50 up to about 1.1 µM and inactive = higher.

Columns and labels:
Test in all cases: NCI anticancer screen, dose series, 48 h
786-0 = tested on: 786-0
A498 = tested on: A498
A549 = tested on: A549
ACHN = tested on: ACHN
CAKI-1 = tested on: CAKI-1
CCRF-CEM = tested on: CCRF-CEM
COLO 205 = tested on: COLO 205
DLD-1 = tested on: DLD-1
DMS-114 = tested on: DMS-114
DMS-273 = tested on: DMS-273
EKVX = tested on: EKVX
HCC 2998 = tested on: HCC 2998
HCT-15 = tested on: HCT-15
HL-60 = tested on: HL-60
HOP-62 = tested on: HOP-62
HOP-92 = tested on: HOP-92
HT-29 = tested on: HT-29
IGROV-1 = tested on: IGROV-1
K562 = tested on: K562
KM-20L2 = tested on: KM-20L2
KM12 = tested on: KM12
LOX IMVI = tested on: LOX IMVI
M14 = tested on: M14
M19-MEL = tested on: M19-MEL
MOLT-4 = tested on: MOLT-4
Malme-3M = tested on: Malme-3M
NCI-H226 = tested on: NCI-H226
NCI-H23 = tested on: NCI-H23
NCI-H460 = tested on: NCI-H460
NCI-H522 = tested on: NCI-H522
OVCAR-3 = tested on: OVCAR-3
OVCAR-4 = tested on: OVCAR-4
OVCAR-5 = tested on: OVCAR-5
OVCAR-8 = tested on: OVCAR-8
RPMI-8226 = tested on: RPMI-8226
RXF 393 = tested on: RXF 393
SF-268 = tested on: SF-268
SF-295 = tested on: SF-295
SF-539 = tested on: SF-539
SK-MEL-28 = tested on: SK-MEL-28
SK-MEL-2 = tested on: SK-MEL-2
SK-MEL-5 = tested on: SK-MEL-5
SK-OV-3 = tested on: SK-OV-3
SN12C = tested on: SN12C
SNB-19 = tested on: SNB-19
SNB-75 = tested on: SNB-75
SW-620 = tested on: SW-620
TK-10 = tested on: TK-10
U-251 = tested on: U-251
UACC-257 = tested on: UACC-257
UACC-62 = tested on: UACC-62
UO-31 = tested on: UO-31
XF498 = tested on: XF498
HCT-116 = tested on: HCT-116
LXFL 529 = tested on: LXFL 529
SR = tested on: SR
HOP-18 = tested on: HOP-18
SNB-78 = tested on: SNB-78

O=C(c1ccc([N+](=O)[O-])cc1[N+](=O)[O-])N(/N=C/C=C/c1ccccc1)c1nnc(-c2ccccc2)c(-c2ccccc2)n1
GI50 (786-0): 21 µM (inactive)
GI50 (A498): 30.5 µM (inactive)
GI50 (A549): 29.4 µM (inactive)
GI50 (ACHN): 24.3 µM (inactive)
GI50 (CAKI-1): 25.4 µM (inactive)
GI50 (CCRF-CEM): 24.5 µM (inactive)
GI50 (COLO 205): 41.6 µM (inactive)
GI50 (DLD-1): 34.8 µM (inactive)
GI50 (DMS-114): 29.2 µM (inactive)
GI50 (DMS-273): 23.7 µM (inactive)
GI50 (EKVX): 36.4 µM (inactive)
GI50 (HCC 2998): 31.6 µM (inactive)
GI50 (HCT-15): 29 µM
GI50 (HL-60): 21.6 µM (inactive)
GI50 (HOP-62): 86.1 µM (inactive)
GI50 (HOP-92): 20.5 µM (inactive)
GI50 (HT-29): 46 µM (inactive)
GI50 (IGROV-1): 42.1 µM (inactive)
GI50 (K562): 20.1 µM (inactive)
GI50 (KM-20L2): > 100 µM (inactive)
GI50 (KM12): 34.8 µM (inactive)
GI50 (LOX IMVI): 35.7 µM (inactive)
GI50 (M14): 30.6 µM (inactive)
GI50 (M19-MEL): 36.7 µM (inactive)
GI50 (MOLT-4): 23.6 µM (inactive)
GI50 (Malme-3M): 43.8 µM (inactive)
GI50 (NCI-H226): 32.7 µM (inactive)
GI50 (NCI-H23): 27 µM (inactive)
GI50 (NCI-H460): 34 µM (inactive)
GI50 (NCI-H522): 22 µM (inactive)
GI50 (OVCAR-3): 21 µM (inactive)
GI50 (OVCAR-4): 20.8 µM (inactive)
GI50 (OVCAR-5): > 100 µM (inactive)
GI50 (OVCAR-8): 22.7 µM (inactive)
GI50 (RPMI-8226): 20.5 µM (inactive)
GI50 (RXF 393): 22.8 µM (inactive)
GI50 (SF-268): 40.7 µM (inactive)
GI50 (SF-295): 30.5 µM (inactive)
GI50 (SF-539): 15.2 µM (inactive)
GI50 (SK-MEL-28): 27.3 µM (inactive)
GI50 (SK-MEL-2): 31 µM (inactive)
GI50 (SK-MEL-5): 30.6 µM (inactive)
GI50 (SK-OV-3): 74.8 µM (inactive)
GI50 (SN12C): 63.7 µM (inactive)
GI50 (SNB-19): 94.4 µM (inactive)
GI50 (SNB-75): 28.8 µM (inactive)
GI50 (SW-620): 44.4 µM (inactive)
GI50 (TK-10): 27.2 µM (inactive)
GI50 (U-251): 40.3 µM (inactive)
GI50 (UACC-257): 31.5 µM (inactive)
GI50 (UACC-62): 20.6 µM (inactive)
GI50 (UO-31): 18.5 µM (inactive)
GI50 (XF498): 17.6 µM (inactive)

O=C(/C=N/O)Nc1cccc(Cl)c1I
GI50 (786-0): > 100 µM (inactive)
GI50 (A498): 27.7 µM (inactive)
GI50 (A549): 46 µM (inactive)
GI50 (ACHN): 57.4 µM (inactive)
GI50 (CAKI-1): 32.3 µM (inactive)
GI50 (CCRF-CEM): 49.1 µM (inactive)
GI50 (COLO 205): 89.9 µM (inactive)
GI50 (DLD-1): 63.4 µM (inactive)
GI50 (DMS-114): 23.3 µM (inactive)
GI50 (DMS-273): > 100 µM (inactive)
GI50 (EKVX): 8.83 µM (inactive)
GI50 (HCC 2998): > 100 µM (inactive)
GI50 (HCT-116): 53.6 µM (inactive)
GI50 (HCT-15): 79.1 µM
GI50 (HL-60): 34.4 µM (inactive)
GI50 (HOP-62): 83.4 µM (inactive)
GI50 (HT-29): > 100 µM (inactive)
GI50 (IGROV-1): 26.5 µM (inactive)
GI50 (K562): 53.5 µM (inactive)
GI50 (KM-20L2): > 100 µM (inactive)
GI50 (KM12): 65.6 µM (inactive)
GI50 (LOX IMVI): 96.8 µM (inactive)
GI50 (LXFL 529): 25 µM (inactive)
GI50 (M14): 47.2 µM (inactive)
GI50 (M19-MEL): 80.7 µM (inactive)
GI50 (MOLT-4): 42.3 µM (inactive)
GI50 (Malme-3M): 40.6 µM (inactive)
GI50 (NCI-H226): > 100 µM (inactive)
GI50 (NCI-H23): 59.2 µM (inactive)
GI50 (NCI-H460): > 100 µM (inactive)
GI50 (NCI-H522): 26.1 µM (inactive)
GI50 (OVCAR-3): 30.1 µM (inactive)
GI50 (OVCAR-4): 28.9 µM (inactive)
GI50 (OVCAR-5): > 100 µM (inactive)
GI50 (OVCAR-8): 81.5 µM (inactive)
GI50 (RPMI-8226): 30.6 µM (inactive)
GI50 (RXF 393): 23.7 µM (inactive)
GI50 (SF-268): 35.9 µM (inactive)
GI50 (SF-295): 50.7 µM (inactive)
GI50 (SK-MEL-28): > 100 µM (inactive)
GI50 (SK-MEL-2): 24.9 µM (inactive)
GI50 (SK-MEL-5): 40.8 µM (inactive)
GI50 (SK-OV-3): 28.5 µM (inactive)
GI50 (SN12C): 47.8 µM (inactive)
GI50 (SNB-19): 55.7 µM (inactive)
GI50 (SNB-75): 12.8 µM (inactive)
GI50 (SR): 30.7 µM (inactive)
GI50 (SW-620): > 100 µM (inactive)
GI50 (TK-10): 44.7 µM (inactive)
GI50 (U-251): 39.2 µM (inactive)
GI50 (UACC-257): 56.9 µM (inactive)
GI50 (UACC-62): 43.1 µM (inactive)
GI50 (UO-31): 23.9 µM (inactive)
GI50 (XF498): 46.3 µM (inactive)

Cc1cc(O)nc(NN2C(Cl)C(=O)C2c2c(O)ccc3ccccc23)n1 (stereo unspecified)
GI50 (A549): 36.2 µM (inactive)
GI50 (ACHN): 20.7 µM (inactive)
GI50 (CCRF-CEM): 6.76 µM (inactive)
GI50 (COLO 205): 25.9 µM (inactive)
GI50 (DMS-114): 19.8 µM (inactive)
GI50 (DMS-273): 16.4 µM (inactive)
GI50 (EKVX): 43.8 µM (inactive)
GI50 (HCC 2998): 15 µM (inactive)
GI50 (HCT-116): 17.3 µM (inactive)
GI50 (HCT-15): 15.6 µM
GI50 (HL-60): 14.1 µM (inactive)
GI50 (HOP-18): 12 µM (inactive)
GI50 (HOP-62): 15.1 µM (inactive)
GI50 (HOP-92): 16.4 µM (inactive)
GI50 (HT-29): 25 µM (inactive)
GI50 (IGROV-1): 38.5 µM (inactive)
GI50 (K562): 23.2 µM (inactive)
GI50 (KM-20L2): 22.6 µM (inactive)
GI50 (KM12): 23 µM (inactive)
GI50 (LOX IMVI): 13.7 µM (inactive)
GI50 (LXFL 529): 15.2 µM (inactive)
GI50 (M14): 15.2 µM (inactive)
GI50 (M19-MEL): 39.6 µM (inactive)
GI50 (MOLT-4): 16.3 µM (inactive)
GI50 (NCI-H226): 13 µM (inactive)
GI50 (NCI-H23): 16.4 µM (inactive)
GI50 (NCI-H460): 15 µM (inactive)
GI50 (OVCAR-3): 13.2 µM (inactive)
GI50 (OVCAR-4): 17.3 µM (inactive)
GI50 (OVCAR-5): 36.9 µM (inactive)
GI50 (OVCAR-8): 27.4 µM (inactive)
GI50 (RPMI-8226): 15.5 µM (inactive)
GI50 (RXF 393): 13.2 µM (inactive)
GI50 (SF-268): 23.1 µM (inactive)
GI50 (SF-539): 21.9 µM (inactive)
GI50 (SK-MEL-28): 19.5 µM (inactive)
GI50 (SK-MEL-2): 15.2 µM (inactive)
GI50 (SK-MEL-5): 15.2 µM (inactive)
GI50 (SN12C): 21.7 µM (inactive)
GI50 (SNB-19): 20.7 µM (inactive)
GI50 (SNB-75): 8.75 µM (inactive)
GI50 (SNB-78): 20.1 µM (inactive)
GI50 (SR): 12 µM (inactive)
GI50 (SW-620): 30.2 µM (inactive)
GI50 (TK-10): 37.2 µM (inactive)
GI50 (U-251): 21.9 µM (inactive)
GI50 (UACC-257): 31.2 µM (inactive)
GI50 (UACC-62): 20.3 µM (inactive)
GI50 (UO-31): 26.1 µM (inactive)
